According to US8586538B2, “Method of treating a patient suffering from a bleeding disorder comprising administering an antibody against the A3-C1 of FVIII” (Stichting Sanquin Bloedvoorziening, priority 2002, dated 2013):
Several values for one entry are separate records, joined by “and”; a condition that tells them apart may be missing. Identical values can stand only once. No end group written: not given here.

B1: scFv KM33: scFv antibody fragment against FVIII light chain; does not require A3 domain region 1778-1818; LRP blocking (protein)
scFv: EVQLVESGGGVVQPGRSLRLSCVDSGLTFSSYGMHWVRQAPGAGLEWVAVISYDGNDKYYADSVKGRFAISRDNAKNTLYLQMNSLTIEDTAVYYCAKDLIESNIAEAFWGQGTLVTVSSGGGGSGGGGSGGGGSDIQMTQSPSSLSASVGDTVTIACRASRDIRNDLAWYQQKPGKAPKLLIYATSRLQSGVPSRFSGSGSFTDFTLTINSLQPDDSATYYCLQDSDYPLTFGGGTKVDIKRAAAEQKLISEEDLNGAAHHHHHH

Assays:
[1] = molecular target: T1, interaction between FVIII light chain and LRP cluster II (Homo sapiens, UniProt Q07954); experiment: Solid-phase competition: FVIII light chain binding to immobilized LRP cluster II; settings: FVIII light chain 25 nM; peptide 0-1 mM; 2 h at 37° C
T1 construct: Recombinant LRP clusters II or IV (1 pmol/well) were adsorbed onto microtiter wells; made in house; host or cells: LRP cluster II: BHK cells; FVIII light chain: plasma-derived
T1 sequence (Q07954 803-1182): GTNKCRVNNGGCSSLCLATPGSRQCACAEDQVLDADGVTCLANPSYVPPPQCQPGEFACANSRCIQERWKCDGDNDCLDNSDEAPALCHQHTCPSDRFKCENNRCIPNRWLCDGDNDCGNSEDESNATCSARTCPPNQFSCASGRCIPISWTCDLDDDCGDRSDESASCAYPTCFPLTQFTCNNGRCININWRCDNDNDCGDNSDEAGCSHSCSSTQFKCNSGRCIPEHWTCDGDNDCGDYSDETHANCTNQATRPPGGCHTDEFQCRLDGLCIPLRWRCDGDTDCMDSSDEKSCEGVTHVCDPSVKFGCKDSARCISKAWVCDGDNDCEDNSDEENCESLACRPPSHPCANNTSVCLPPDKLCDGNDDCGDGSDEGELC
Experimental: (§1) FIG. 4. Effect of scFv antibody fragments on the interaction between FVIII light chain and LRP. A, FVIII light chain (LCh) (25 nM) was incubated with immobilized LRP cluster II (1 pmol/well) in a volume of 50 μl in 150 mM NaCl, 5 mM CaCl2, 1% (w/v) HSA, 0.1% Tween® 20, and 50 mM Tris (pH 7.4) in the presence of various concentrations (0-100 nM) of scFv KM41 (closed circles) or scFv KM36 (open circles) for 2 h at 37° C. After washing with the same buffer, bound FVIII light chain was quantified by incubation with peroxidase-conjugated anti-FVIII antibody CLB-CAg 12 for 15 min at 37° C. Residual binding is expressed as the percentage of binding in the absence of competitor and is corrected for nonspecific binding (less than 5% relative to binding to LRP cluster II-immobilized wells). Data represent the mean±S.D. of three experiments. B, FVIII light chain (50 nM) was incubated with immobilized LRP (16 fmol/mm^2) as described in the legend of FIG. 1. Binding was assessed in the absence (curve 1) or in the presence of increasing concentrations of scFv KM41 (20, 60, 300, 500 nM, curves 2-5, respectively). Complexes were allowed to form for 30 min before SPR analysis.
(§2) FIG. 5. Effect of scFv KM33 on the interaction between FVIII light chain and LRP. FVIII light chain (LCh) (25 nM) was incubated with immobilized LRP cluster II (1 pmol/well) in a volume of 50 μl in 150 mM NaCl, 5 mM CaCl2, 1% (w/v) HSA, 0.1% Tween® 20, and 50 mM Tris (pH 7.4) in the presence of various concentrations (0-30 nM) of scFv KM36 (open circles) or scFv KM33 (closed circles) for 2 h at 37° C. After washing with the same buffer, bound FVIII Light chain was quantified by incubation with peroxidase-conjugated anti-FVIII antibody CLB-CAg 12 for 15 min at 37° C. Residual binding is expressed as the percentage of binding in the absence of competitor and is corrected for nonspecific binding (less than 5% relative to binding to cluster-coated wells). Data represent the mean±S.D. of three experiments.
(§3) Recombinant LRP clusters II or IV (1 pmol/well) were adsorbed onto microtiter wells in 50 mM NaHCO3 (pH 9.8) in a volume of 50 μl for 16 h at 4° C. Wells were blocked with 2% (w/v) HSA, 150 mM NaCl, 5 mM CaCl2, and 50 mM Tris (pH 7.4) in a volume of 200 μl for 1 h at 37° C. After three rapid washes (less than 5 seconds each) with 150 mM NaCl, 5 mM CaCl2, 0.1% (v/v) Tween® 20, and 50 mM Tris (pH 7.4), FVIII light chain or its derivatives were incubated at various concentrations in a volume of 50 μl in a buffer containing 150 mM NaCl, 5 mM CaCl2, 1% (w/v) HSA, 0.1% (v/v) Tween® 20, and 50 mM Tris (pH 7.4) for 2 h. at 37° C. Bound ligand was detected by incubating with peroxidase-conjugated monoclonal antibody CLB-CAg 12 in the same buffer for 15 min at 37° C. […] In competition experiments, FVIII light chain (25 nM) was incubated with wells containing immobilized LRP clusters, either in the presence or absence of serial dilutions of competitor in a volume of 50 μl for 2 h at 37° C. Residual FVIII binding was detected as described above. Data were corrected for binding to empty microtiter wells, which was less than 5% relative to binding to wells containing immobilized LRP clusters.
(§4) (Note to Table II: Effect of FVIII a3-A3-C1 fragment derived synthetic peptides on the interaction between FVIII light chain and LRP cluster II. FVIII light chain (25 nM) was incubated with immobilized LRP cluster II (1 pmol/well) in a volume of 50 μl in 150 mM NaCl, 5 mM CaCl2, 1% (w/v) HSA, 0.1% Tween® 20, and 50 mM Tris (pH 7.4) in the presence or absence of various concentrations of synthetic peptide (0-1 mM) for 2 h at 37° C. After washing with the same buffer, bound FVIII light chain was quantified by incubation with peroxidase-conjugated anti-FVIII antibody CLB-CAg 12 for 15 min at 37° C. Half-maximum inhibition constants (IC50) represent the mean values±S.D. of three experiments.)

FVIIIa-FIXa complex = FVIIIa-FIXa complex (Homo sapiens, UniProt P00451+P00740); settings: by interfering with the assembly of the FVIIIa-FIXa complex; cited from earlier work
[2] = molecular target: T2, interaction between FVIII light chain and LRP cluster IV (Homo sapiens, UniProt P00451); experiment: Solid-phase competition: FVIII light chain binding to immobilized LRP cluster IV; settings: FVIII light chain 25 nM; competitor 0-600 nM
T2 construct: made in house; host or cells: LRP cluster IV: BHK cells; FVIII light chain: plasma-derived
T2 sequence (P00451 1668-2351 limits assumed): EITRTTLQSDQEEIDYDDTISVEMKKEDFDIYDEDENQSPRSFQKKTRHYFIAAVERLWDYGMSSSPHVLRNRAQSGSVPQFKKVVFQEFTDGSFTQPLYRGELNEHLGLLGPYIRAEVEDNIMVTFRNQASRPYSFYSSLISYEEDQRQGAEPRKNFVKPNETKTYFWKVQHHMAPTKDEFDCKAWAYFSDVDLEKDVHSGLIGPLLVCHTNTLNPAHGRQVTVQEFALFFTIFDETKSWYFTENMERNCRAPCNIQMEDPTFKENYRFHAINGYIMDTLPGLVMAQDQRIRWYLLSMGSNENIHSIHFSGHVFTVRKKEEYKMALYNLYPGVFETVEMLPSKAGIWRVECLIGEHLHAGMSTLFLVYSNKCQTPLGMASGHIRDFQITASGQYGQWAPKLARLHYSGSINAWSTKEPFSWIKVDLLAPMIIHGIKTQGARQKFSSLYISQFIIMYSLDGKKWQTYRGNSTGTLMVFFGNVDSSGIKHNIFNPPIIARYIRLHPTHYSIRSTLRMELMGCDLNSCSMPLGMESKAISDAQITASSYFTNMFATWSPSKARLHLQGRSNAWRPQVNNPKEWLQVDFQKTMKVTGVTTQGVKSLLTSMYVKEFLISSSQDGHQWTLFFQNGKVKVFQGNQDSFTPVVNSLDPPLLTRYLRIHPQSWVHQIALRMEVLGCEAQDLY
Experimental: FIG. 2. Binding of FVIII light chain to recombinant LRP fragments. FVIII light chain (LCh) (25 nM) was incubated with immobilized LRP cluster IV (1 pmol/well) in a volume of 50 μl in 150 mM NaCl, 5 mM CaCl2, 1% (w/v) HSA, 0.1% Tween® 20, and 50 mM Tris (pH 7.4) in the presence or absence of various concentrations of recombinant LRP cluster II (0-600 nM) for 2 h at 37° C. After washing with the same buffer, bound FVIII light chain was quantified by incubation with peroxidase-conjugated anti-FVIII antibody CLB-CAg 12 for 15 min at 37° C. Residual binding is expressed as the percentage of binding in the absence of competitor and is corrected for nonspecific binding (less than 5% relative to binding to LRP cluster II-immobilized wells). Inset, serial dilutions of FVIII light chain were incubated with immobilized LRP cluster II (1 pmol/well) in a volume of 50 μl in 150 mM NaCl, 5 mM CaCl2, 1% (w/v) HSA, 0.1% Tween® 20, and 50 mM Tris (pH 7.4) for 2 h at 37° C. After washing with the same buffer, bound FVIII light chain was quantfied as described above. […]
Recombinant LRP clusters II or IV (1 pmol/well) were adsorbed onto microtiter wells in 50 mM NaHCO3 (pH 9.8) in a volume of 50 μl for 16 h at 4° C. […] Bound ligand was detected by incubating with peroxidase-conjugated monoclonal antibody CLB-CAg 12 in the same buffer for 15 min at 37° C. […] Residual FVIII binding was detected as described above. […]

[3] = Factor VIII clearance and recovery in vWF knock out mice; assay type: in vivo; settings: for Factor VIII activity in plasma: Factor VIII 200 U/kg
Experimental: FIG. 8. According to Example II, mice were injected either with human FVIII alone, human FVIII in the presence of a control scFv-fragment (KM38) and with human FVIII in the presence of a scFv-fragment (KM33) specifically interfering with the putative FVIII-LRP interaction.
Experimental procedure: vWF knock out mice (decreased endogenous Factor VIII, 20% Factor VIII compared to healthy animals) were treated with human recombinant Factor VIII (Recombinate™; 200 U/kg) and recombinant scFv (KM33) in excess. (30 nM versus 3 nM Factor VIII in plasma). In control experiments, Factor VIII and a control scFv fragment (KM38) binding to a different domain as the proposed LRP binding
site on the Factor VIII molecule were used in the same concentrations. Infusion of recombinant FVIII without any addition was used to monitor the clearance of Factor VIII in this model system.
At defined time points (15, 30, 60, 120 and 240 minutes) after injection, blood was collected by heart puncture, plasma was subsequently isolated, shock frozen and analyzed for Factor VIII activity. Ten mice were used at each time point, plasma was diluted to 3 concentrations (1:20, 1:60 and 1:100) and analyzed in duplicate. Factor VIII levels were quantified by performing a quantitative ELISA.

[4] = molecular target: T3, interaction between FVIII light chain and LRP cluster II (Homo sapiens, UniProt P00451); experiment: Solid-phase competition: FVIII light chain binding to immobilized LRP cluster II; settings: FVIII light chain 25 nM
T3 construct: Recombinant LRP clusters II or IV (1 pmol/well) were adsorbed onto microtiter wells; made in house; host or cells: LRP cluster II: BHK cells; FVIII light chain: plasma-derived
T3 sequence (P00451 1668-2351): T2 sequence (P00451 1668-2351 limits assumed)
Experimental: as §1, §2, §3, §4

FVIIIa-FIXa complex, sequence (P00740 47-191 limits assumed, one chain of several): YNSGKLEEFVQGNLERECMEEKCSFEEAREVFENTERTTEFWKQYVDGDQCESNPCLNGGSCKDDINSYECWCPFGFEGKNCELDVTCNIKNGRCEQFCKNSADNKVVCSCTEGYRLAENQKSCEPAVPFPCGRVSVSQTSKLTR

Molecule	IC50 [1]	Inhibition of FVIII procoagulant activity (FVIIIa-FIXa complex)	also measured
EDPTFKENYRFH [Residues 1908-1919]	> 1000 µM		
HMAPTKDEFDCKA [Residues 1822-1834]	> 1000 µM		
KLARLHYSG [Residues 2049-2057]	> 1000 µM		
KNFVKPNETKTYFWK [Residues 1804-1818]	~1.9 µM and 1.9 µM	effective inhibitors	
LRP cluster II: recombinant LRP ligand binding cluster II expressed in BHK cells			Inhibition of FVIII light chain binding to immobilized LRP cluster IV [2]: dose-dependent inhibition
TENMERNCRA [Residues 1892-1901]	> 1000 µM		
TVRKKEEYK [Residues 1964-1972]	> 1000 µM		
WDYGMSSSPHVLRNR [Residues 1707-1721]	> 1000 µM		
YFWKVQHHMAPTKDEFDCKA [Residues 1815-1834]	~16.8 µM and 16.8 µM	effective inhibitors	
B1		effective inhibitors	Factor VIII recovery ([3]; 15 minutes after injection): 30.4%; Factor VIII activity in plasma ([3]; 15 minutes after injection): about 0.8 U/mL; Factor VIII recovery ([3]; 30 minutes after injection): 20%; Factor VIII activity in plasma ([3]; 30 minutes after injection): 0.5 U/mL; Factor VIII recovery ([3]; 60 minutes after injection): 14%; Factor VIII activity in plasma ([3]; 60 minutes after injection): 0.35 U/mL; FVIII activity levels ([3]; four hours after injection): reached the background activity of mouse Factor VIII; Effect on binding of FVIII light chain to immobilized LRP cluster II [4]: effectively inhibited
